Source: ChEMBL document CHEMBL5154870, “Discovery of novel glutaminase 1 allosteric inhibitor with 4-piperidinamine linker and aromatic heterocycles” (Eur J Med Chem, 2022)

Key:
H22 = assay: Antiproliferative activity against mouse H22 cells assessed as inhibition of cell proliferation measured after 72 hrs by MTT assay; type: functional, cell-based; conditions: H22, 72 h
CT26 = assay: Antiproliferative activity against mouse CT26 cells overexpressing GLS1 assessed as inhibition of cell proliferation measured after 72 hrs by MTT assay; type: functional, cell-based; conditions: CT26, 72 h
[1] = biological target: T1, Glutaminase kidney isoform, mitochondrial (Mus musculus, UniProt D3Z7P3); assay: Inhibition of GLS1 in mouse kidney assessed as inhibition of glutamate production using glutamine as substrate incubated for 1 hr by coupled assay; type: tissue-based
T1 sequence (D3Z7P3 whole entry): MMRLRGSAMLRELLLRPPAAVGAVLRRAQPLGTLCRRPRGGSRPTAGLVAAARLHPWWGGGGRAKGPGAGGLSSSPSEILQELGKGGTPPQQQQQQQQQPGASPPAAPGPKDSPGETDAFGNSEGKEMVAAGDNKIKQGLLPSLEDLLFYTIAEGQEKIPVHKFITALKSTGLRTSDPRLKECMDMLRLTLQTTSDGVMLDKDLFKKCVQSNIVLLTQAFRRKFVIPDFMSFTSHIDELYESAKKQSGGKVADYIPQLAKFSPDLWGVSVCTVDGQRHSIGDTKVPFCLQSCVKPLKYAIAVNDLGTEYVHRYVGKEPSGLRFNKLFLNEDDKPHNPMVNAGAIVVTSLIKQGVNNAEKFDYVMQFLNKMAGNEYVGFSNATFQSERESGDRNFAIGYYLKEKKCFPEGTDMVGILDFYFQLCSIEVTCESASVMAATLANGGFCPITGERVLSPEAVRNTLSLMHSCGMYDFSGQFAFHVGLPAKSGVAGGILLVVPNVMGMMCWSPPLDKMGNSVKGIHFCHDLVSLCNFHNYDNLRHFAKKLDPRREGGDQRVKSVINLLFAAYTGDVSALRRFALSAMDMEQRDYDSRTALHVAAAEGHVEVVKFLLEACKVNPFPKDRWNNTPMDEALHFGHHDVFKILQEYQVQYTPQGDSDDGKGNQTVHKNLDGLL

[2] = Metabolic stability in human plasma assessed as parent compound remaining at 1 uM measured after 2 hrs by LC-MS/MS analysis; type: ADME, cell-free; conditions: read-out: Stability
[3] = Metabolic stability in human liver microsomes assessed as half life at 10 uM by LC-MS/MS analysis; type: ADME, Microsome
[4] = Metabolic stability in human liver microsomes assessed as parent compound remaining at 10 uM measured after 30 mins by LC-MS/MS analysis; type: ADME, Microsome; conditions: microsomes, 0.5 h, 10 µM
[5] = biological target: T1, Glutaminase kidney isoform, mitochondrial; assay: Inhibition of GLS1 in mouse brain assessed as inhibition of glutamate production using glutamine as substrate incubated for 1 hr by coupled assay; type: tissue-based
[6] = Metabolic stability in human liver microsomes assessed as parent compound remaining at 10 uM measured after 60 mins by LC-MS/MS analysis; type: ADME, Microsome; conditions: microsomes, 1 h, 10 µM
HCT-116 [7] = assay: Antitumor activity against human HCT-116 cells xenografted in BALB/c SPF mouse assessed as tumor growth inhibition at 100 mg/kg, ip administered BID for 21 days; type: functional; conditions: time 21 day
MDA-MB-436 = assay: Antiproliferative activity against human MDA-MB-436 cells overexpressing GLS1 assessed as inhibition of cell proliferation measured after 72 hrs by MTT assay; type: functional, cell-based; conditions: MDA-MB-436, 72 h
[8] = Metabolic stability in human liver microsomes assessed as intrinsic clearance at 10 uM by LC-MS/MS analysis; type: ADME, Microsome; conditions: read-out: CLH
[9] = biological target: T2, Glutaminase kidney isoform, mitochondrial (Homo sapiens) (UniProt O94925); conditions: filed as negative allosteric modulator
T2 sequence (whole entry): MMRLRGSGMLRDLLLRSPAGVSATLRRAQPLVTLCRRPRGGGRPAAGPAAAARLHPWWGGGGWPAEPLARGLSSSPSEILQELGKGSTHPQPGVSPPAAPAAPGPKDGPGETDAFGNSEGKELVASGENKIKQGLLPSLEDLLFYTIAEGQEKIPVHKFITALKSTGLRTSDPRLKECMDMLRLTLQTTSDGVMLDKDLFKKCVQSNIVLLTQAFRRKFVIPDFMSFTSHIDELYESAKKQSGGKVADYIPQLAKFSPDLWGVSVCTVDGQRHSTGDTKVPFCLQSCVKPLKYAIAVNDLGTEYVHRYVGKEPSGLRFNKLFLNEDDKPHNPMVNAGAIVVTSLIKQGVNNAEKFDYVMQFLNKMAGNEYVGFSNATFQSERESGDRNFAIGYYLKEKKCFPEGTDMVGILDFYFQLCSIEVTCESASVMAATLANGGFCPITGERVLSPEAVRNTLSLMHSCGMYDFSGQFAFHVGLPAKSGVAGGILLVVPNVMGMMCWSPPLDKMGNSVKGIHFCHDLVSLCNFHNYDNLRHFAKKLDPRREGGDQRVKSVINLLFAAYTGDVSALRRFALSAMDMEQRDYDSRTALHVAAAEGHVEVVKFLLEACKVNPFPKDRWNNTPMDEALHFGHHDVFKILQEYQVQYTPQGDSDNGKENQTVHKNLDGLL
Description: Binding affinity to human GLS1 assessed as stabilization of protein by measuring change in melting temperature by protein thermal shift assay

HCT-116 [10] = assay: Antiproliferative activity against human HCT-116 cells overexpressing GLS1 assessed as inhibition of cell proliferation measured after 72 hrs by MTT assay; type: functional, cell-based; conditions: HCT-116, 72 h
[11] = biological target: T3, Glutaminase kidney isoform, mitochondrial (Homo sapiens, UniProt O94925); assay: Binding affinity to human GLS1 assessed as dissociation constant by surface plasmon resonance analysis
T3 sequence (O94925 whole entry): T2 sequence (whole entry)

[12] = biological target: T3, Glutaminase kidney isoform, mitochondrial; assay: Allosteric inhibition of human GLS1 using glutamine as substrate incubated for 60 mins by NADH/NADPH-based absorbance analysis

IC50 (CT26) | IC50 [1] | remaining at 2 h, 1 µM [2] | t1/2 ([3]; microsomes, 10 µM) | Stability [4] | IC50 [5] | Stability [6] | IC50 (MDA-MB-436) | microsomal CLint at 10 µM [8] | ΔTm [9] | half-life at 10 µM ([3]; liver microsomes) | IC50 (HCT-116 [10]) | Kd [11] | IC50 [12] | Structure (SMILES) | IC50 (H22) | TGI (HCT-116 [7])
420 nM | 20 nM | 85% | 1.524 h | 98% | 20 nM | 89% | 410 nM | 19.5 µL/min/mg | – | – | – | – | – | O=C(Cc1cccc(OC(F)(F)F)c1)Nc1ccc(CCCCc2nnc(NC(=O)Cc3ccccn3)s2)nn1 | 1340 nM | 50.6%
– | – | 98% | – | – | – | – | 620 nM | 5.57 µL/min/mg | 15.2 °C | 5.21 h | 160 nM | 81 nM | 19.3 nM | CO[C@H](C(=O)Nc1nnc(NC2CCN(c3nnc(NC(=O)CCc4cn(-c5ccc(C(F)(F)F)cc5)nn4)s3)CC2)s1)c1ccccc1 | – | –
